Test results: ChEMBL document CHEMBL5257077, “d-chiro-Inositol Derivatives with Multidrug Resistance Reversal Activities from the Fruits of Chisocheton siamensis” (J Nat Prod, 2023)

Test: Reversal of multidrug resistance in human MCF7-DOX cells measured for 48 hrs by MTT assay
Type: functional, cell-based

Row | Compound | IC50
1 | C/C=C(\C)C(=O)O[C@H]1[C@@H](OC(C)=O)[C@H](OC(C)=O)[C@H](OC(=O)/C(C)=C/C)[C@@H](OC(=O)/C(=C/C)CO)[C@@H]1OC(=O)/C(=C/C)CO | 3.4 µM
2 | C/C=C(\C)C(=O)O[C@H]1[C@H](OC(=O)/C(C)=C/C)[C@@H](OC(=O)/C(C)=C/C)[C@@H](O)[C@H](O)[C@@H]1OC(=O)/C(C)=C/C | 4 µM
3 | C/C=C(\C)C(=O)O[C@@H]1[C@H](O)[C@@H](OC(=O)/C(C)=C/C)[C@H](OC(=O)/C(C)=C/C)[C@@H](OC(=O)/C(C)=C/C)[C@H]1O | 6.5 µM
4 | COc1cccc2c1C(=O)c1c(O)c3c(c(O)c1C2=O)C[C@@](O)(C(=O)CO)C[C@@H]3O[C@H]1C[C@H](N)[C@H](O)[C@H](C)O1 [DOXORUBICIN] | 22.4 µM
5 | COc1ccc(CCN(C)CCCC(C#N)(c2ccc(OC)c(OC)c2)C(C)C)cc1OC (stereo not given) [VERAPAMIL] | 2.1 µM
